Entries after “also recorded” stand apart in the source; their conditions may differ.
Assay: Toxicology in rats, oral, histopathology
Assay type: in vivo
Description: After 32 days, the rats were sacrificed and their organs were examined under a microscope.

In the case of `O.O.O.O.[Na+].[O-]B1OO1` [sodium perborate tetrahydrate], the “KIDNEY Edema, No Exam” value (rat, in vivo, po, 4 mg/kg) is reported as 0/10, the “KIDNEY Notable or abnormal, %” value (rat, in vivo, po, 4 mg/kg) is reported as 0% and the “KIDNEY Notable or abnormal, No Exam” value (rat, in vivo, po, 4 mg/kg) is reported as 0/10. For the same molecule, the “KIDNEY Within normal limits, %” value (rat, in vivo, po, 4 mg/kg) was 100%, the “KIDNEY Within normal limits, No Exam” value (rat, in vivo, po, 4 mg/kg) was 10/10 and the “LIVER Fattening, %” value (rat, in vivo, po, 4 mg/kg) was 0%. For the same molecule, the “LIVER Fattening, No Exam” value (rat, in vivo, po, 4 mg/kg) was 0/10, the “LIVER Infiltration, %” value (rat, in vivo, po, 4 mg/kg) was 0% and the “LIVER Infiltration, No Exam” value (rat, in vivo, po, 4 mg/kg) was 0/10. The “LIVER Notable or abnormal, %” value (rat, in vivo, po, 4 mg/kg) was 0%, the “LIVER Notable or abnormal, No Exam” value (rat, in vivo, po, 4 mg/kg) was 0/10 and the “LIVER Within normal limits, %” value (rat, in vivo, po, 4 mg/kg) was 100%. For the same molecule, the “LIVER Within normal limits, No Exam” value (rat, in vivo, po, 4 mg/kg) was 10/10, the “LUNG Lymphocytic infiltration, %” value (rat, in vivo, po, 4 mg/kg) was 0% and the “LUNG Lymphocytic infiltration, No Exam” value (rat, in vivo, po, 4 mg/kg) was 0/10. For the same molecule, the “LUNG Notable or abnormal, %” value (rat, in vivo, po, 4 mg/kg) was 0%, the “LUNG Notable or abnormal, No Exam” value (rat, in vivo, po, 4 mg/kg) was 0/10 and the “LUNG Pulmonary edema, %” value (rat, in vivo, po, 4 mg/kg) was 0%. For the same molecule, the “LUNG Pulmonary edema, No Exam” value (rat, in vivo, po, 4 mg/kg) was 0/10, the “LUNG Within normal limits, %” value (rat, in vivo, po, 4 mg/kg) was 100% and the “LUNG Within normal limits, No Exam” value (rat, in vivo, po, 4 mg/kg) was 10/10. For the same molecule, the “PANCREAS Notable or abnormal, %” value (rat, in vivo, po, 4 mg/kg) was 0%, the “PANCREAS Notable or abnormal, No Exam” value (rat, in vivo, po, 4 mg/kg) was 0/10 and the “PANCREAS Within normal limits, %” value (rat, in vivo, po, 4 mg/kg) was 100%. For the same molecule, the “PANCREAS Within normal limits, No Exam” value (rat, in vivo, po, 4 mg/kg) was 10/10, the “SPLEEN Notable or abnormal, %” value (rat, in vivo, po, 4 mg/kg) was 0% and the “SPLEEN Notable or abnormal, No Exam” value (rat, in vivo, po, 4 mg/kg) was 0/10. For the same molecule, the “SPLEEN Within normal limits, %” value (rat, in vivo, po, 4 mg/kg) was 100%, the “SPLEEN Within normal limits, No Exam” value (rat, in vivo, po, 4 mg/kg) was 10/10 and the “STOMACH Notable or abnormal, %” value (rat, in vivo, po, 4 mg/kg) was 0%. For the same molecule, the “STOMACH Notable or abnormal, No Exam” value (rat, in vivo, po, 4 mg/kg) was 0/10, the “STOMACH Within normal limits, %” value (rat, in vivo, po, 4 mg/kg) was 100% and the “STOMACH Within normal limits, No Exam” value (rat, in vivo, po, 4 mg/kg) was 10/10. The “HEART Notable or abnormal, %” value (rat, in vivo, po, 8 mg/kg/day) was 0%, the “HEART Notable or abnormal, No Exam” value (rat, in vivo, po, 8 mg/kg/day) was 0/10 and the “HEART Within normal limits, %” value (rat, in vivo, po, 8 mg/kg/day) was 100%. For the same molecule, the “HEART Within normal limits, No Exam” value (rat, in vivo, po, 8 mg/kg/day) was 10/10, the “INTESTINE, Large Notable or abnormal, %” value (rat, in vivo, po, 8 mg/kg/day) was 0% and the “INTESTINE, Large Notable or abnormal, No Exam” value (rat, in vivo, po, 8 mg/kg/day) was 0/10. For the same molecule, the “INTESTINE, Large Within normal limits, %” value (rat, in vivo, po, 8 mg/kg/day) was 100%, the “INTESTINE, Large Within normal limits, No Exam” value (rat, in vivo, po, 8 mg/kg/day) was 10/10 and the “INTESTINE, Small Enteritis, %” value (rat, in vivo, po, 8 mg/kg/day) was 10%. The “INTESTINE, Small Enteritis, No Exam” value (rat, in vivo, po, 8 mg/kg/day) was 1/10, the “INTESTINE, Small Notable or abnormal, %” value (rat, in vivo, po, 8 mg/kg/day) was 10% and the “INTESTINE, Small Notable or abnormal, No Exam” value (rat, in vivo, po, 8 mg/kg/day) was 1/10. For the same molecule, the “INTESTINE, Small Within normal limits, %” value (rat, in vivo, po, 8 mg/kg/day) was 90%, the “INTESTINE, Small Within normal limits, No Exam” value (rat, in vivo, po, 8 mg/kg/day) was 9/10 and the “KIDNEY Edema, %” value (rat, in vivo, po, 8 mg/kg/day) was 0%. The “KIDNEY Edema, No Exam” value (rat, in vivo, po, 8 mg/kg/day) was 0/10, the “KIDNEY Notable or abnormal, %” value (rat, in vivo, po, 8 mg/kg/day) was 0% and the “KIDNEY Notable or abnormal, No Exam” value (rat, in vivo, po, 8 mg/kg/day) was 0/10. For the same molecule, the “KIDNEY Within normal limits, %” value (rat, in vivo, po, 8 mg/kg/day) was 100%, the “KIDNEY Within normal limits, No Exam” value (rat, in vivo, po, 8 mg/kg/day) was 10/10 and the “LIVER Fattening, %” value (rat, in vivo, po, 8 mg/kg/day) was 0%. For the same molecule, the “LIVER Fattening, No Exam” value (rat, in vivo, po, 8 mg/kg/day) was 0/10, the “LIVER Infiltration, %” value (rat, in vivo, po, 8 mg/kg/day) was 0% and the “LIVER Infiltration, No Exam” value (rat, in vivo, po, 8 mg/kg/day) was 0/10. The “LIVER Notable or abnormal, %” value (rat, in vivo, po, 8 mg/kg/day) was 0%, the “LIVER Notable or abnormal, No Exam” value (rat, in vivo, po, 8 mg/kg/day) was 0/10 and the “LIVER Within normal limits, %” value (rat, in vivo, po, 8 mg/kg/day) was 100%. The “LIVER Within normal limits, No Exam” value (rat, in vivo, po, 8 mg/kg/day) was 10/10, the “LUNG Lymphocytic infiltration, %” value (rat, in vivo, po, 8 mg/kg/day) was 0% and the “LUNG Lymphocytic infiltration, No Exam” value (rat, in vivo, po, 8 mg/kg/day) was 0/10. The “LUNG Notable or abnormal, %” value (rat, in vivo, po, 8 mg/kg/day) was 0%, the “LUNG Notable or abnormal, No Exam” value (rat, in vivo, po, 8 mg/kg/day) was 0/10 and the “LUNG Pulmonary edema, %” value (rat, in vivo, po, 8 mg/kg/day) was 0%. For the same molecule, the “LUNG Pulmonary edema, No Exam” value (rat, in vivo, po, 8 mg/kg/day) was 0/10, the “LUNG Within normal limits, %” value (rat, in vivo, po, 8 mg/kg/day) was 100% and the “LUNG Within normal limits, No Exam” value (rat, in vivo, po, 8 mg/kg/day) was 10/10. For the same molecule, the “PANCREAS Notable or abnormal, %” value (rat, in vivo, po, 8 mg/kg/day) was 0%, the “PANCREAS Notable or abnormal, No Exam” value (rat, in vivo, po, 8 mg/kg/day) was 0/10 and the “PANCREAS Within normal limits, %” value (rat, in vivo, po, 8 mg/kg/day) was 100%. For the same molecule, the “PANCREAS Within normal limits, No Exam” value (rat, in vivo, po, 8 mg/kg/day) was 10/10, the “SPLEEN Notable or abnormal, %” value (rat, in vivo, po, 8 mg/kg/day) was 0% and the “SPLEEN Notable or abnormal, No Exam” value (rat, in vivo, po, 8 mg/kg/day) was 0/10. For the same molecule, the “SPLEEN Within normal limits, %” value (rat, in vivo, po, 8 mg/kg/day) was 100%, the “SPLEEN Within normal limits, No Exam” value (rat, in vivo, po, 8 mg/kg/day) was 10/10 and the “STOMACH Notable or abnormal, %” value (rat, in vivo, po, 8 mg/kg/day) was 0%. For the same molecule, the “STOMACH Notable or abnormal, No Exam” value (rat, in vivo, po, 8 mg/kg/day) was 0/10, the “STOMACH Within normal limits, %” value (rat, in vivo, po, 8 mg/kg/day) was 100% and the “STOMACH Within normal limits, No Exam” value (rat, in vivo, po, 8 mg/kg/day) was 10/10. The “histopathology overall: toxicity to healthy tissues / organ damage” value (rats, oral 0.125 mg/kg/day to 8 mg/kg/day, 32 days) was “no significant organ damage; also recorded: no significant toxicity to healthy tissues”.
